The structures appear in SMILES notation.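 Five compound concentrations were applied to cells in 96-well plates for 48 hours; endpoints were derived by simple linear interpolation of the resulting dose-response curve. Definition used: TGI = concentration required for complete inhibition of growth.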

Drawing on PubChem BioAssay (NCI), this text covers TGI for 13 compounds.

Among the test systems are SF-268 CNS; SK-MEL-5 melanoma; PC-3 prostate; U251 CNS; OVCAR-5 ovarian; NCI-H23 lung; NCI-H460 lung; ACHN renal; MDA-MB-435; HT29 colon; A549 NSCLC; HL-60(TB) leukemia.
What all share (test): NCI anticancer screen, dose series, 48 h

Regarding `O=C(C[N+]12CN3CN(CN(C3)C1)C2)c1ccc(-c2ccccc2)cc1`, the TGI was found to be 39.4 µM in the assay on SF-268 CNS; 30.4 µM in the assay on SK-MEL-5 melanoma; 34 µM with PC-3 prostate; 32.2 µM with U251 CNS; 37.6 µM in the assay with OVCAR-5 ovarian; 53.5 µM in the assay with NCI-H23 lung. Moreover, the TGI with NCI-H460 lung was 30.9 µM; with ACHN renal it was 52.9 µM; in the assay with MDA-MB-435, over 100 µM; in the assay on HT29 colon, 48.4 µM; in the assay with A549 NSCLC it was over 100 µM.
With `CN(C(=O)Cc1ccccc1)n1cn[n+](CC(=O)OC(C)(C)C)c1`, the TGI with SF-268 CNS, in the assay on SK-MEL-5 melanoma, in the assay with PC-3 prostate, with U251 CNS, with OVCAR-5 ovarian and in the assay with NCI-H23 lung was over 10 µM in each case. Besides, the TGI in the assay with NCI-H460 lung, in the assay with ACHN renal, with MDA-MB-435, in the assay on HT29 colon and with A549 NSCLC was over 10 µM throughout.
On to `CC(C)c1cc(=O)[nH]c2cc(N)ccc12`, for which the TGI with SK-MEL-5 melanoma, in the assay with PC-3 prostate, in the assay on U251 CNS, in the assay with OVCAR-5 ovarian, with NCI-H23 lung and in the assay on NCI-H460 lung was over 100 µM throughout. Moreover, the TGI in the assay on ACHN renal, in the assay on MDA-MB-435, in the assay with HT29 colon and in the assay on A549 NSCLC was over 100 µM throughout.
In the case of `O=C(/C=C/c1ccc(OCc2ccccc2)cc1)NCc1ccc(C(=O)NCCc2ccccc2)cc1`, the TGI in the assay on SF-268 CNS, with SK-MEL-5 melanoma, in the assay with PC-3 prostate, in the assay on U251 CNS, in the assay on OVCAR-5 ovarian and in the assay on NCI-H23 lung was over 100 µM each time. In addition, the TGI in the assay with NCI-H460 lung, in the assay on ACHN renal, in the assay with MDA-MB-435, with HT29 colon and with A549 NSCLC was over 100 µM each time.
Regarding `C[N+]1(C)CCCC(C#N)(c2ccccc2)CC1` (stereo unspecified), the TGI in the assay on SF-268 CNS, in the assay with SK-MEL-5 melanoma, with PC-3 prostate, in the assay on U251 CNS, with OVCAR-5 ovarian and in the assay on NCI-H23 lung was over 100 µM in each case. The TGI with NCI-H460 lung, in the assay on ACHN renal, in the assay on HL-60(TB) leukemia, in the assay with HT29 colon and in the assay on A549 NSCLC was over 100 µM in each case.
As to `Cc1ccc(C)c2c1C1CCCCC3(OCCCO3)C21O` (stereo unspecified), the TGI with SF-268 CNS, in the assay with SK-MEL-5 melanoma, with U251 CNS, in the assay with OVCAR-5 ovarian, in the assay on NCI-H23 lung and with NCI-H460 lung was over 100 µM in each case. Moreover, the TGI with ACHN renal, with HL-60(TB) leukemia, in the assay on HT29 colon and with A549 NSCLC was over 100 µM in each case.
Consider `CC(C)(C)OC(=O)Cn1ncn(NC(=O)Cc2ccccc2)c1=S`, for which the TGI with SF-268 CNS, in the assay on SK-MEL-5 melanoma, in the assay with PC-3 prostate, in the assay on U251 CNS, in the assay with OVCAR-5 ovarian and in the assay with NCI-H23 lung was over 10 µM throughout. Moreover, the TGI with NCI-H460 lung, in the assay with ACHN renal, with MDA-MB-435, in the assay on HT29 colon and in the assay with A549 NSCLC was over 10 µM each time.
Turning to `CN(CCN)[C@H](CSSC[C@@H](c1ccccc1O)N(C)CCN)c1ccccc1O`, the TGI in the assay with SF-268 CNS is 33.7 µM; with SK-MEL-5 melanoma, 24.4 µM; with PC-3 prostate, 30.2 µM; in the assay with U251 CNS, over 47.8 µM; with OVCAR-5 ovarian, 28.6 µM; with NCI-H23 lung, 28.5 µM. In addition, the TGI in the assay on NCI-H460 lung turned out to be 24.4 µM; in the assay on ACHN renal, 22.6 µM; with MDA-MB-435, 42.8 µM; with HT29 colon, 21.3 µM; in the assay with A549 NSCLC, 23.9 µM.
As for `CN(C)C(=O)C(F)(F)C(c1ccccc1)C1C(=O)N(C)C(=O)N(C)C1=O` (stereo unspecified), the TGI with SF-268 CNS, in the assay with SK-MEL-5 melanoma, in the assay on PC-3 prostate, in the assay on U251 CNS, with OVCAR-5 ovarian and with NCI-H23 lung was over 100 µM in each case. Besides, the TGI in the assay with NCI-H460 lung, in the assay with ACHN renal, in the assay with MDA-MB-435 and with A549 NSCLC was over 100 µM in each case.
On to `O=C1c2cc3c(cc2NC(c2ccccc2F)C1O)OCO3` (stereo unspecified), for which the TGI is 68.2 µM in the assay on SF-268 CNS; over 100 µM in the assay with SK-MEL-5 melanoma; over 100 µM with PC-3 prostate; over 68 µM with U251 CNS; over 75.9 µM in the assay with OVCAR-5 ovarian; over 91.5 µM with NCI-H23 lung. For the same compound, the TGI was over 100 µM in the assay on NCI-H460 lung; over 100 µM in the assay with ACHN renal; 13.6 µM in the assay on MDA-MB-435; 43.3 µM in the assay with HT29 colon; over 63.1 µM in the assay on A549 NSCLC.
As for `CNC(=S)N/N=C/C(C)=N/NC(=S)NC`, the TGI with SF-268 CNS, in the assay with SK-MEL-5 melanoma, in the assay on U251 CNS, in the assay with OVCAR-5 ovarian, in the assay on NCI-H23 lung and with NCI-H460 lung was over 100 µM each time. In addition, the TGI in the assay on ACHN renal and in the assay with A549 NSCLC was over 100 µM in each case.
`COC(=O)[C@@H]1c2c(oc3cc(CO)cc(O)c3c2=O)C=C[C@H]1O`: the TGI came to 21.7 µM in the assay on SF-268 CNS; 28.5 µM in the assay with SK-MEL-5 melanoma; 20.1 µM in the assay with PC-3 prostate; 22.5 µM in the assay on U251 CNS; 22.8 µM in the assay with OVCAR-5 ovarian; 36 µM in the assay with NCI-H23 lung. The TGI with NCI-H460 lung was 34 µM; in the assay with MDA-MB-435, 15.5 µM; in the assay on HT29 colon it was 14.2 µM; with A549 NSCLC, 34.1 µM.
Turning to `Cc1ccc(S(=O)(=O)N/N=C2\C=CC3(CC2)C(=O)N(I)c2ccccc23)cc1` (stereo unspecified), the TGI with SF-268 CNS, with SK-MEL-5 melanoma, in the assay with PC-3 prostate, with U251 CNS, with OVCAR-5 ovarian and with NCI-H23 lung was over 100 µM in each case. Also, the TGI in the assay on NCI-H460 lung, with ACHN renal, with MDA-MB-435, in the assay on HT29 colon and in the assay on A549 NSCLC was over 100 µM in each case.
